US5936097A, “4,9-ethano-benzo(F)isoindole derivatives as farnesyl transferase inhibitors” (Rhone-Poulenc Rorer, S.A., priority 1995, dated 1999)
Structures can show the parent of a compound that is named as a salt.

Each molecule was assayed against T1, human farnesyl transferase (Homo sapiens, UniProt P49354+P49356) (assay: inhibition of farnesyl transferase ((3H) farnesyl transfer from (3H) FPP to p21 H-ras)). Details: not given.
T1 construct: human farnesyl transferase purified from THP1 cell cultures; endogenous in cells; host or cells: THP1 cell cultures (enzyme purified from the cells)
Type: biochemical
Summary of the method: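 Radiometric transfer of [3H]farnesyl from 4.5 pmol [3H]FPP to 200 pmol p21 H-ras by ~5 ng human enzyme purified from THP1 cells, in 50 mM Tris-HCl, 5 mM MgCl2, 5 mM DTT, 0.2% octyl glucoside, 20 min at 37 °C. Protein precipitated with SDS/TCA in methanol, filter-bound counts measured; IC50 from 9 concentrations, triplicate.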

| Structure (SMILES) | IC50 [nM] |
| --- | --- |
| COc1ccccc1CC(=S)N1C[C@@H]2[C@]3(c4ccccc4)CC[C@@H](c4ccccc43)[C@]2(C(=O)O)C1 (relative stereo) [Example 65, (3aRS,4SR,9SR,9aRS)-4,9-Ethano-2-(2-methoxyphenyl)thioacetyl-9-phenyl-2,3,3a,4,9,9a-hexahydro-1H-benzo[f]isoindole-3a-carboxylic acid] | 410 |
| COc1ccccc1CCC(=O)N1C[C@@H]2[C@]3(c4ccccc4)CC[C@@H](c4ccccc43)[C@]2(C(=O)O)C1 (relative stereo) [Example 59, (3aRS,4SR,9SR,9aRS)-4,9-Ethano-2-(2-methoxyphenyl)propionyl-9-phenyl-2,3,3a,4,9,9a-hexahydro-1H-benzo[f]isoindole-3a-carboxylic acid] | 5000 |
| COc1ccccc1[C@@H](C)C(=O)N1CC2C3(c4ccccc4)CCC(c4ccccc43)C2(C(=O)O)C1 (single isomer, unassigned) [Example 33] | 2030 |
| CCOP(=O)(C[C@]12CN(C(=O)Cc3ccccc3OC)C[C@H]1[C@@]1(c3ccccc3)CC[C@@H]2c2ccccc21)OCC (relative stereo) [Example 22, diethyl ester of [(3aRS, 4SR, 9SR, 9aRS)-4,9-ethano-2-(2-methoxyphenyl)acetyl-9-phenyl-2,3,3a,4,9,9a-hexahydro-1H-benzo[f]isoindol-3a-yl]methylphosphonic acid] | 10000 |
| COc1ccccc1[C@H](C)C(=O)N1CC2C3(c4ccccc4)CCC(c4ccccc43)C2(C(=O)O)C1 (single isomer, unassigned) [Example 34] | 590 |

Same assay, conditions: human farnesyl transferase purified from THP1 cell cultures; p21 H-ras substrate; 20 minutes at 37° C.; 9 concentrations; read-out: in vitro inhibitory activity IC50

| IC50 [nM] | Structure (SMILES) |
| --- | --- |
| 9000 | CCOC(=O)CC(=O)N[C@]12CN(C(=O)Cc3ccccc3OC)C[C@H]1[C@@]1(c3ccccc3)CC[C@@H]2c2ccccc21 (relative stereo) [Example 15, (3aRS, 4SR, 9SR, 9aRS)-4,9-ethano-3a-ethoxycarbonylacetylamino-2-(2-methoxyphenyl)acetyl-9-phenyl-2,3,3a,4,9,9a-hexahydro-1H-benzo[f]isoindole] |
| 250 | C=C(C(=O)N1C[C@H]2[C@@]3(c4ccccc4)CC[C@H](c4ccccc43)[C@@]2(C(=O)NC(C#N)c2ccccc2)C1)c1ccccc1OC (stereo partly drawn) [Example 87, (3aS,4R,9R,9aS)-N-[1-(R,S)-1-cyano-1-phenylmethyl]-4,9-ethano-2-[(2-methoxyphenyl)prop-2-en-1-oyl]-9-phenyl-2,3,3a,4,9,9a-hexahydro-1H-benzo[f]isoindole-3a-carboxamide] |
| 4800 | C=C(C(=O)N1C[C@H]2[C@@]3(c4ccccc4)CC[C@H](c4ccccc43)[C@@]2(C(=O)NCc2ccc(C(F)(F)F)cc2)C1)c1ccccc1OC [Example 92, (3aS,4R,9R,9aS)-N-[4-trifluorobenzyl]-[4,9-ethano-2-(2-methoxyphenyl)prop-2-en-1-oyl]-9-phenyl-2,3,3a,4,9,9a-hexahydro-1H-benzo[f]isoindole-3a-carboxamide] |
| 3700 | COc1cccc(CC(=O)N2C[C@@H]3[C@]4(c5ccccc5)CC[C@@H](c5ccccc54)[C@]3(C(=O)O)C2)c1OC (relative stereo) [Example 36, (3aRS, 4SR, 9SR, 9aRS)-4,9-ethano-2-(2,3-dimethoxyphenyl)acetyl-9-phenyl-2,3,3a,4,9,9a-hexahydro-1H-benzo[f]isoindole-3a-carboxylic acid] |
| 3950 | COC(=O)[C@]12CN(C(=O)Cc3ccccc3OC)C[C@H]1[C@@]1(c3ccccc3)CC[C@@H]2c2cc(C=O)ccc21 (relative stereo) [Example 97, methyl ester of (3aRS,4SR,9SR,9aRS)-4,9-ethano-6-formyl-2-[(2-methoxyphenyl)acetyl]-9-phenyl-2,3,3a,4,9,9a-hexahydro-1H-benzo[f]isoindole-3a-carboxylic acid] |
| 330 | C=C(C(=O)N1C[C@H]2[C@@]3(c4ccccc4)CC[C@H](c4ccccc43)[C@@]2(C(=O)NC2CCc3ccccc32)C1)c1ccccc1OC (stereo partly drawn) [Example 84, (3aS,4R,9R,9aS)-N-[(R,S)-1-indanyl]-4,9-ethano-2-[(2-methoxyphenyl)prop-2-en-1-oyl]-9-phenyl-2,3,3a,4,9,9a-hexahydro-1H-benzo[f]isoindole-3a-carboxamide] |
| 110 | C=C(C(=O)N1C[C@@H]2[C@]3(c4ccccc4)CC[C@@H](c4ccccc43)[C@]2(C(=O)NOC)C1)c1ccccc1OC (racemic) [Example 44, (3aRS,4SR,9SR,9aRS)-N-methoxy-4,9-ethano-2-[2-(2-methoxyphenyl)prop-2-en-1-oyl]-9-phenyl-2,3,3a,4,9,9a-hexahydro-1H-benzo[f]isoindole-3a-carboxamide] |
| 430 | C=C(C(=O)N1C[C@H]2[C@@]3(c4ccccc4)CC[C@H](c4ccccc43)[C@@]2(C(=O)NCc2ccco2)C1)c1ccccc1OC [Example 94, (3aS,4R,9R,9aS)-N-[(2-furyl)-methyl]-4,9-ethano-2-[(2-methoxyphenyl)prop-2-en-1-oyl]-9-phenyl-2,3,3a,4,9,9a-hexahydro-1H-benzo[f]isoindole-3a-carboxamide] |
| 970 | C=C(C(=O)N1C[C@H]2[C@@]3(c4ccccc4)CC[C@H](c4ccccc43)[C@@]2(C(=O)NCc2ccc(OC)c(OC)c2)C1)c1ccccc1OC [Example 90, (3aS,4R,9R,9aS)-N-(3,4-dimethoxybenzyl)-4,9-ethano-2-[(2-methoxyphenyl)prop-2-en-1-oyl]-9-phenyl-2,3,3a,4,9,9a-hexahydro-1H-benzo[f]isoindole-3a-carboxamide] |
| 7000 | CNCCNC(=O)[C@]12CN(C(=O)Cc3ccccc3OC)C[C@H]1[C@@]1(c3ccccc3)CC[C@@H]2c2ccccc21 (relative stereo) [Example 5, (3aRS, 4SR, 9SR, 9aRS)-N-(2-methylaminoethyl)-4,9-ethano-2-(2-methoxyphenyl)acetyl-9-phenyl-2,3,3a,4,9,9a-hexahydro-1H-benzo[f]isoindole-3a-carboxamide] |
| 270 | C=C(C(=O)N1C[C@H]2[C@@]3(c4ccccc4)CC[C@H](c4ccccc43)[C@@]2(C(=O)NCc2cccs2)C1)c1ccccc1OC [Example 95, (3aS,4R,9R,9aS)-N-[(2-thienyl)-methyl]-4,9-ethano-2-[(2-methoxyphenyl)prop-2-en-1-oyl]-9-phenyl-2,3,3a,4,9,9a-hexahydro-1H-benzo[f]isoindole-3a-carboxamide] |
| 8800 | COc1ccccc1CC(=O)N1C[C@H]2[C@@]3(c4ccccc4)CC[C@H](c4ccccc43)[C@@]2(NC(=O)C(N)CCSC)C1 (stereo partly drawn) [Example 13, (3aRS, 4SR, 9SR, 9aRS)-3a-methionylamino-4,9-ethano-2-(2-methoxyphenyl)acetyl-9-phenyl-2,3,3a,4,9,9a-hexahydro-1H-benzo[f]isoindole] |
| 190 | COc1ccccc1CC(=O)N1C[C@H]2[C@@]3(c4ccccc4)CC[C@H](c4ccccc43)[C@@]2(C(=O)NC(Cc2c[nH]cn2)C(=O)O)C1 (stereo partly drawn) [Example 8, hydrochloride of N-[(3aRS, 4SR, 9SR, 9aRS)-4,9-ethano-2-(2-methoxyphenyl)acetyl-9-phenyl-2,3,3a,4,9,9a-hexahydro-1H-benzo[f]isoindolyl-3a-carbonyl]histidine] |
| 4900 | COc1ccccc1CC(=O)N1C[C@H]2[C@@]3(c4ccccc4)CC[C@H](c4ccccc43)[C@@]2(NC(=O)CCC(=O)O)C1 (relative stereo) [Example 17, (3aRS, 4SR, 9SR, 9aRS)-4,9-ethano-3a-(3-carboxypropionyl)amino-2-(2-methoxyphenyl)acetyl-9-phenyl-2,3,3a,4,9,9a-hexahydro-1H-benzo[f]isoindole] |
| 50 | C=C(C(=O)N1C[C@H]2[C@@]3(c4ccccc4)CC[C@H](c4ccccc43)[C@@]2(C(=O)N[C@H](C(=O)O)c2ccccc2)C1)c1ccccc1OC [Example 81, N-[(3aS,4R,9R,9aS)-4,9-ethano-2-[(2-methoxy-phenyl)prop-2-en-1-oyl]-9-phenyl-2,3,3a,4,9,9a-hexahydro-1H-benzo[f]isoindol-3a-ylcarboxamide]-(S)-phenylglycine] |
| 8700 | COc1ccccc1CC(=O)N1C[C@H]2[C@@]3(c4ccccc4)CC[C@H](c4ccccc43)[C@@]2(NC(=O)C(CO)NC(=O)OC(C)(C)C)C1 (stereo partly shown) [Example 14] |
| 750 | O=C(Cc1ccccc1OCc1ccccc1)N1C[C@@H]2[C@]3(c4ccccc4)CC[C@@H](c4ccccc43)[C@]2(C(=O)O)C1 (relative stereo) [Example 64, (3aRS,4SR,9SR,9aRS)-4,9-Ethano-2-(2-benzyloxyphenyl)acetyl-9-phenyl-2,3,3a,4,9,9a-hexahydro-1H-benzo[f]isoindole-3a-carboxylic acid] |
| 4200 | COc1ccccc1CC(=O)N1C[C@H]2[C@@]3(c4ccccc4)CC[C@H](c4ccccc43)[C@@]2(CC(C(=O)O)C(=O)O)C1 (relative stereo) [Example 24, 2-{(3aRS, 4SR, 9SR, 9aRS)-4,9-ethano-[(2-methoxyphenyl)acetyl]-9-phenyl-1,2,3,3a,9,9a-hexahydro-1H-benzo[f]isoindole-3a-}-methylmalonic acid] |
| 260 | C=C(C(=O)N1C[C@H]2[C@@]3(c4ccccc4)CC[C@H](c4ccccc43)[C@@]2(C(=O)N[C@H](CO)c2ccccc2)C1)c1ccccc1OC [Example 85, (3aS,4R,9R,9aS)-N-[1-(S)-1-phenyl-2-hydroxyethyl]-4,9-ethano-2[-(2-methoxyphenyl)prop-2-en-1-oyl]-9-phenyl-2,3,3a,4,9,9a-hexahydro-1H-benzo[f]isoindole-3a-carboxamide] |
| 950 | COc1ccccc1CC(=O)N1C[C@H]2[C@@]3(c4ccccc4)CC[C@H](c4ccccc43)[C@@]2(C(=O)NCC(=O)O)C1 (relative stereo) [Example 67, N-[(3aRS,4SR,9SR,9aRS)-4,9-ethano-2-(2-methoxy-phenyl)acetyl-9-phenyl-2,3,3a,4,9,9a-hexahydro-1H-benzo[f]isoindol-3a-yl]carbonylglycine] |
